Test results published in patent US20120270237A9, “METHODS FOR THE IDENTIFICATION OF KINASE INTERACTING MOLECULES AND FOR THE PURIFICATION OF KINASE PROTEINS” (Cellzone AG, priority 2009, published 2012).

Legend:
Test in all cases: Kinobeads competition binding with immobilized CZC25342, mixed HeLa placenta lysates (Example 5, Table 7)
[1] = biological target: T1, kinases from mixed HeLa placenta lysates (Homo sapiens, UniProt O75716); conditions: kinase MPSK1; 10 μM free compound; HeLa Placenta lysate mix
T1 construct: capturing and identification of kinases from mixed HeLa placenta lysates; endogenous in cells; host or cells: mixed lysate of HeLa cells and placenta tissue
Procedure: (§1) To one aliquot of cell lysate 10 μM of the free compound (FIG. 2, CZC25342) was added and allowed to bind to proteins in the lysate. Then the affinity matrix with the immobilized compound was added to capture proteins that were not interacting with the previously added free compound. Beads were separated from the lysate and bead bound proteins were eluted in SDS sample buffer and subsequently separated by SDS-Polyacrylamide gel electrophoresis (FIG. 11). Suitable gel bands were cut out and subjected to in-gel proteolytic digestion with trypsin. The second lysate aliquot was processed identically, however no free compound was added (DMSO solvent control). Peptides originating from samples 1 and 2 were labeled with iTRAQ reagents (iTRAQ 114 and iTRAQ 117) and the combined samples were analyzed with a nano-flow liquid chromatography system coupled online to a tandem mass spectrometer (LC-MS/MS) experiment followed by iTRAQ reporter ion quantification in the MS/MS spectra as described in Example 2. The identified kinases are shown in Table 7 including the percent competition values for the sample to which 10 μM free compound had been added. In total of 83 different kinases were identified and competed by different degrees.

[2] = biological target: T2, kinases from mixed HeLa placenta lysates (Homo sapiens, UniProt O96013); conditions: kinase PAK4; 10 μM free compound; HeLa Placenta lysate mix
T2 construct: capturing and identification of kinases from mixed HeLa placenta lysates; endogenous in cells; host or cells: mixed lysate of HeLa cells and placenta tissue
Procedure: as §1

[3] = biological target: T3, kinases from mixed HeLa placenta lysates (Homo sapiens, UniProt P07332); conditions: kinase FES; 10 μM free compound; HeLa Placenta lysate mix
T3 construct: capturing and identification of kinases from mixed HeLa placenta lysates; endogenous in cells; host or cells: mixed lysate of HeLa cells and placenta tissue
T3 sequence (P07332 whole entry): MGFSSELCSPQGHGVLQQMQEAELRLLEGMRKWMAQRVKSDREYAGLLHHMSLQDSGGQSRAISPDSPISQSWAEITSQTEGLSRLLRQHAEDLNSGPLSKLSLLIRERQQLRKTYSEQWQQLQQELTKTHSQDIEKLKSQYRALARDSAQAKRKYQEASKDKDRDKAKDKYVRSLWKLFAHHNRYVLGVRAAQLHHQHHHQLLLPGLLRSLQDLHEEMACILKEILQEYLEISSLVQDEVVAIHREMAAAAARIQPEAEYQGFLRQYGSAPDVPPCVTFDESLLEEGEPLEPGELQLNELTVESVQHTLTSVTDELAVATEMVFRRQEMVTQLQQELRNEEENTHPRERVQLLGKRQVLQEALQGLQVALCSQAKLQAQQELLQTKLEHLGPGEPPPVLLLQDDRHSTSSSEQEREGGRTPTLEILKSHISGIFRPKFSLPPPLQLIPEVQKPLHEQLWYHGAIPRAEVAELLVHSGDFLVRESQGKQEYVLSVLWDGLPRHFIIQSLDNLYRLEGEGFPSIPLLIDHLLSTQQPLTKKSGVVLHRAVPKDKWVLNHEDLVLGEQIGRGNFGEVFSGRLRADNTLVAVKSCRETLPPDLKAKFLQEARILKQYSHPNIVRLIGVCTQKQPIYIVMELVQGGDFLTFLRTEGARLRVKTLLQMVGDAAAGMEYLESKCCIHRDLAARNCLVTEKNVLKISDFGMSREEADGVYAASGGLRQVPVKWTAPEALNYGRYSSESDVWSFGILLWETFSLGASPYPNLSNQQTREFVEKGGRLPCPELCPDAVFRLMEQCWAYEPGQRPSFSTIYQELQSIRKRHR
Procedure: as §1

[4] = biological target: T4, kinases from mixed HeLa placenta lysates (Homo sapiens, UniProt P08581); conditions: kinase MET; 10 μM free compound; HeLa Placenta lysate mix
T4 construct: capturing and identification of kinases from mixed HeLa placenta lysates; endogenous in cells; host or cells: mixed lysate of HeLa cells and placenta tissue
T4 sequence (P08581 25-1390): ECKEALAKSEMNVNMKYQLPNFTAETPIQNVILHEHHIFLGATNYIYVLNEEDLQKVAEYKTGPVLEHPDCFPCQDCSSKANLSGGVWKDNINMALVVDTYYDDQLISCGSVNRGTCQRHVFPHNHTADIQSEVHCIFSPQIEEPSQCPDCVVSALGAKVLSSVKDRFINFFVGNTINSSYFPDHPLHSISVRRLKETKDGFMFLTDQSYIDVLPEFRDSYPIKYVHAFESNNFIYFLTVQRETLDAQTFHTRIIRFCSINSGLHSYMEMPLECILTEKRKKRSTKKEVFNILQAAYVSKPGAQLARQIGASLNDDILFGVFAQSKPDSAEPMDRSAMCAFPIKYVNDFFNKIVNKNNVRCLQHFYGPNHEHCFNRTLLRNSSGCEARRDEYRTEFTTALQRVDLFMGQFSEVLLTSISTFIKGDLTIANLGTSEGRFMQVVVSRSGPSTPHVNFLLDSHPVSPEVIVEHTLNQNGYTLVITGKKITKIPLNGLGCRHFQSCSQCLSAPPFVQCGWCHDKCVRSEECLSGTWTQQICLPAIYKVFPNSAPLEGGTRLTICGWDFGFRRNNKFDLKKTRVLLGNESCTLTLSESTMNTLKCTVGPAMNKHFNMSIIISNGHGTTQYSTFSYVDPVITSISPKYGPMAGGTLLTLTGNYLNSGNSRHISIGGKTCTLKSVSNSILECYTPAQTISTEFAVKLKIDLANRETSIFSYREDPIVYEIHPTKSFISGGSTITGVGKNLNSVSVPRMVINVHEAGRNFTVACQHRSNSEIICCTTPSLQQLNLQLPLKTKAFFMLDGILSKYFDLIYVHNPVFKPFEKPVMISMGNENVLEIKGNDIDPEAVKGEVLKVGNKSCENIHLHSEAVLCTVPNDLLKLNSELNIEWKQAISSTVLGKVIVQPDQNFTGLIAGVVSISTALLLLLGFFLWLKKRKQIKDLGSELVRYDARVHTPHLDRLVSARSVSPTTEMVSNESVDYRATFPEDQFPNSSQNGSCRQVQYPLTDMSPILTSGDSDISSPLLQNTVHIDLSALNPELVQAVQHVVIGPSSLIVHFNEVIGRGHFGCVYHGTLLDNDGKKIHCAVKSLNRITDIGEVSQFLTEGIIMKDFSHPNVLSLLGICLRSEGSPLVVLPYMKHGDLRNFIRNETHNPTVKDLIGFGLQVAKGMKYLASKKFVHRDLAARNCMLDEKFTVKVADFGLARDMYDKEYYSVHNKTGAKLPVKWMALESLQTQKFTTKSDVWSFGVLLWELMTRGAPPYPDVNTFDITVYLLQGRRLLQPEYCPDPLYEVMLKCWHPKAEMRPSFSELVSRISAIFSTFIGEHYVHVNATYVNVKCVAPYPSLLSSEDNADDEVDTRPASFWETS
Procedure: as §1

[5] = biological target: T5, kinases from mixed HeLa placenta lysates (Homo sapiens, UniProt P23458); conditions: kinase JAK1; 10 μM free compound; HeLa Placenta lysate mix
T5 construct: capturing and identification of kinases from mixed HeLa placenta lysates; endogenous in cells; host or cells: mixed lysate of HeLa cells and placenta tissue
T5 sequence (P23458 whole entry): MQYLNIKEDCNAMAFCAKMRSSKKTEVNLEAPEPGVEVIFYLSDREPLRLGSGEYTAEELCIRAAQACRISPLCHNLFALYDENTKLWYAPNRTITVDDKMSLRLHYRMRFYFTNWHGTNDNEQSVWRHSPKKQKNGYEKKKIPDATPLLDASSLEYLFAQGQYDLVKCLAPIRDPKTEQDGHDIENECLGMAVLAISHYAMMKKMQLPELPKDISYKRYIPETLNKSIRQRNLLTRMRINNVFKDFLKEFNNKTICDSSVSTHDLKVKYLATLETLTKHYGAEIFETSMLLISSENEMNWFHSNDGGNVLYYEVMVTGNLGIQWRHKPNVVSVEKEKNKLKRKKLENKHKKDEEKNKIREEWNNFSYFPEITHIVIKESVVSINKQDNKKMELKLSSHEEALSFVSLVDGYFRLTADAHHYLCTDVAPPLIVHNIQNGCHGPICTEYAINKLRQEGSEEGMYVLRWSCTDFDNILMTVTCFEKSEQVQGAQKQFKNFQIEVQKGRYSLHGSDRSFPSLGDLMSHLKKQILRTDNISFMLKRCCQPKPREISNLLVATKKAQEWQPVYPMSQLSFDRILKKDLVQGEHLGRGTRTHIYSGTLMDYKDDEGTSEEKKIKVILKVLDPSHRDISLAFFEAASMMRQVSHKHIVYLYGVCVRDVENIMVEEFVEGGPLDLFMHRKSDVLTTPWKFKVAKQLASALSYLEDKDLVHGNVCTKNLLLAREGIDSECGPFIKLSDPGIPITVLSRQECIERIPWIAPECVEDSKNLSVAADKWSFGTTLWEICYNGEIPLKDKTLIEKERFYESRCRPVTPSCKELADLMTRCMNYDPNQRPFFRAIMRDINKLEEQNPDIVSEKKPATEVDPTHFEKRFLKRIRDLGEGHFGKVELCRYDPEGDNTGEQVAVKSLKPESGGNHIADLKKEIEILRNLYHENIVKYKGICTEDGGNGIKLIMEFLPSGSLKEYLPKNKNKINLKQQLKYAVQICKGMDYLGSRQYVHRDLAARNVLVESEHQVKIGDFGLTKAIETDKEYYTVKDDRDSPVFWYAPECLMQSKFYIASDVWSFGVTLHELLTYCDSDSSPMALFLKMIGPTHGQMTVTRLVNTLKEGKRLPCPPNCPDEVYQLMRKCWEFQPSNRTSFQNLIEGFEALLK
Procedure: as §1

[6] = biological target: T6, kinases from mixed HeLa placenta lysates (Homo sapiens, UniProt P27448); conditions: kinase MARK3; 10 μM free compound; HeLa Placenta lysate mix
T6 construct: capturing and identification of kinases from mixed HeLa placenta lysates; endogenous in cells; host or cells: mixed lysate of HeLa cells and placenta tissue
Procedure: as §1

[7] = biological target: T7, kinases from mixed HeLa placenta lysates (Homo sapiens, UniProt P30291); conditions: kinase Wee1; 10 μM free compound; HeLa Placenta lysate mix
T7 construct: capturing and identification of kinases from mixed HeLa placenta lysates; endogenous in cells; host or cells: mixed lysate of HeLa cells and placenta tissue
T7 sequence (P30291 whole entry): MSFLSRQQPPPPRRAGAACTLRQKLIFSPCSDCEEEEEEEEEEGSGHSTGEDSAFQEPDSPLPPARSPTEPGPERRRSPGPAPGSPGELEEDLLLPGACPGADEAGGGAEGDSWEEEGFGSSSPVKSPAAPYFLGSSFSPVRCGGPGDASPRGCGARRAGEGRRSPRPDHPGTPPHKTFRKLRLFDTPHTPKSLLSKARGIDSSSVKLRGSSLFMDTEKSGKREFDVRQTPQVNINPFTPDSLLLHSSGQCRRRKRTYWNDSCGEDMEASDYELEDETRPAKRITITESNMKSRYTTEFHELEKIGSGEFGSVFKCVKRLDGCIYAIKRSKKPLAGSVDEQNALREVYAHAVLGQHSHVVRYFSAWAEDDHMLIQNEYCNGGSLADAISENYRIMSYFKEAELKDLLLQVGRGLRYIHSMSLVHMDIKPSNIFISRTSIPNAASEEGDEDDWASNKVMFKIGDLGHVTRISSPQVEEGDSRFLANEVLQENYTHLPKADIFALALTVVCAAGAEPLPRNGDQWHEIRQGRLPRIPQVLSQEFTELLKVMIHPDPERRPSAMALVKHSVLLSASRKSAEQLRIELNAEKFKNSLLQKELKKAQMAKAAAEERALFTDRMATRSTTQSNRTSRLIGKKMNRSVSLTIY
Procedure: as §1

[8] = biological target: T8, kinases from mixed HeLa placenta lysates (Homo sapiens, UniProt P35916); conditions: kinase FLT4; 10 μM free compound; HeLa Placenta lysate mix
T8 construct: capturing and identification of kinases from mixed HeLa placenta lysates; endogenous in cells; host or cells: mixed lysate of HeLa cells and placenta tissue
Procedure: as §1

[9] = biological target: T9, kinases from mixed HeLa placenta lysates (Homo sapiens, UniProt P49841); conditions: kinase GSK3B; 10 μM free compound; HeLa Placenta lysate mix
T9 construct: capturing and identification of kinases from mixed HeLa placenta lysates; endogenous in cells; host or cells: mixed lysate of HeLa cells and placenta tissue
Procedure: as §1

[10] = biological target: T10, kinases from mixed HeLa placenta lysates (Homo sapiens, UniProt P51956); conditions: kinase NEK3; 10 μM free compound; HeLa Placenta lysate mix
T10 construct: capturing and identification of kinases from mixed HeLa placenta lysates; endogenous in cells; host or cells: mixed lysate of HeLa cells and placenta tissue
Procedure: as §1

[11] = biological target: T11, kinases from mixed HeLa placenta lysates (Homo sapiens, UniProt P54646); conditions: kinase AMPKa2; 10 μM free compound; HeLa Placenta lysate mix
T11 construct: capturing and identification of kinases from mixed HeLa placenta lysates; endogenous in cells; host or cells: mixed lysate of HeLa cells and placenta tissue
T11 sequence (P54646 whole entry): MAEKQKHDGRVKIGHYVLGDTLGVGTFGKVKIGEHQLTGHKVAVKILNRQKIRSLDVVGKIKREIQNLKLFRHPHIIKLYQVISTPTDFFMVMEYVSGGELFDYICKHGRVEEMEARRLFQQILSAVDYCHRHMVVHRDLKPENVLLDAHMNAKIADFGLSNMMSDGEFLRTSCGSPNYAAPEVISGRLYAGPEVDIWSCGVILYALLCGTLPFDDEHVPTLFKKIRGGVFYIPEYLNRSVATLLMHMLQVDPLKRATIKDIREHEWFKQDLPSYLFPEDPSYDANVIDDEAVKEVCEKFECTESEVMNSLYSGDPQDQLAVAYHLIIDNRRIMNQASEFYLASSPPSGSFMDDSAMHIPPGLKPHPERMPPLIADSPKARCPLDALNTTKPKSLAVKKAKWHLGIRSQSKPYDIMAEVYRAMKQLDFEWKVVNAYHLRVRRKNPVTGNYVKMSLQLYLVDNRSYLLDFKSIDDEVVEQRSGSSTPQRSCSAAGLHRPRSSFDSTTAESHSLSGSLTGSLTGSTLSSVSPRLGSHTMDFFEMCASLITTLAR
Procedure: as §1

[12] = biological target: T12, kinases from mixed HeLa placenta lysates (Homo sapiens, UniProt P78527); conditions: kinase DNAPK; 10 μM free compound; HeLa Placenta lysate mix
T12 construct: capturing and identification of kinases from mixed HeLa placenta lysates; endogenous in cells; host or cells: mixed lysate of HeLa cells and placenta tissue
Procedure: as §1

[13] = biological target: T13, kinases from mixed HeLa placenta lysates (Homo sapiens, UniProt Q12866); conditions: kinase MER; 10 μM free compound; HeLa Placenta lysate mix
T13 construct: capturing and identification of kinases from mixed HeLa placenta lysates; endogenous in cells; host or cells: mixed lysate of HeLa cells and placenta tissue
Procedure: as §1

[14] = biological target: T14, kinases from mixed HeLa placenta lysates (Homo sapiens, UniProt Q13470); conditions: kinase TNK1; 10 μM free compound; HeLa Placenta lysate mix
T14 construct: capturing and identification of kinases from mixed HeLa placenta lysates; endogenous in cells; host or cells: mixed lysate of HeLa cells and placenta tissue
Procedure: as §1

[15] = biological target: T15, kinases from mixed HeLa placenta lysates (Homo sapiens, UniProt Q13557); conditions: kinase CaMK2d; 10 μM free compound; HeLa Placenta lysate mix
T15 construct: capturing and identification of kinases from mixed HeLa placenta lysates; endogenous in cells; host or cells: mixed lysate of HeLa cells and placenta tissue
T15 sequence (Q13557 whole entry): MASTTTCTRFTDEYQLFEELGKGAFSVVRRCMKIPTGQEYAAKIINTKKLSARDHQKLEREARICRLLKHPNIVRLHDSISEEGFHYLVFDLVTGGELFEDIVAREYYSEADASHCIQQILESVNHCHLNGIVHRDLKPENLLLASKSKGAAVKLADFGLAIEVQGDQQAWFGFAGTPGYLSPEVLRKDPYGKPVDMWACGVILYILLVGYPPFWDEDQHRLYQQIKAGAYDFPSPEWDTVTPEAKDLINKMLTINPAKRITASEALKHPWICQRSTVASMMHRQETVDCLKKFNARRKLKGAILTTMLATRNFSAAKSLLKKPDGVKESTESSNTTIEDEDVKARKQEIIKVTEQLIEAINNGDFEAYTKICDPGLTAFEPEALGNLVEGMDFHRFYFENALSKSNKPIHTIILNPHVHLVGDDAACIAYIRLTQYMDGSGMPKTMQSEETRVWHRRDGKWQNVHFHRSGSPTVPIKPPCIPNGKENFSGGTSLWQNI
Procedure: as §1

[16] = biological target: T16, kinases from mixed HeLa placenta lysates (Homo sapiens, UniProt Q14289); conditions: kinase PYK2; 10 μM free compound; HeLa Placenta lysate mix
T16 construct: capturing and identification of kinases from mixed HeLa placenta lysates; endogenous in cells; host or cells: mixed lysate of HeLa cells and placenta tissue
Procedure: as §1

[17] = biological target: T17, kinases from mixed HeLa placenta lysates (Homo sapiens, UniProt Q15349); conditions: kinase RSK3; 10 μM free compound; HeLa Placenta lysate mix
T17 construct: capturing and identification of kinases from mixed HeLa placenta lysates; endogenous in cells; host or cells: mixed lysate of HeLa cells and placenta tissue
Procedure: as §1

[18] = biological target: T18, kinases from mixed HeLa placenta lysates (Homo sapiens, UniProt Q5S007); conditions: kinase LRRK2; 10 μM free compound; HeLa Placenta lysate mix
T18 construct: capturing and identification of kinases from mixed HeLa placenta lysates; endogenous in cells; host or cells: mixed lysate of HeLa cells and placenta tissue
Procedure: as §1

[19] = biological target: T19, kinases from mixed HeLa placenta lysates (Homo sapiens, UniProt Q5TCX8); conditions: kinase MLK4; 10 μM free compound; HeLa Placenta lysate mix
T19 construct: capturing and identification of kinases from mixed HeLa placenta lysates; endogenous in cells; host or cells: mixed lysate of HeLa cells and placenta tissue
Procedure: as §1

[20] = biological target: T20, kinases from mixed HeLa placenta lysates (Homo sapiens, UniProt Q6PHR2); conditions: kinase ULK3; 10 μM free compound; HeLa Placenta lysate mix
T20 construct: capturing and identification of kinases from mixed HeLa placenta lysates; endogenous in cells; host or cells: mixed lysate of HeLa cells and placenta tissue
Procedure: as §1

[21] = biological target: T21, kinases from mixed HeLa placenta lysates (Homo sapiens, UniProt Q96RR4); conditions: kinase CaMKK2; 10 μM free compound; HeLa Placenta lysate mix
T21 construct: capturing and identification of kinases from mixed HeLa placenta lysates; endogenous in cells; host or cells: mixed lysate of HeLa cells and placenta tissue
Procedure: as §1

[22] = biological target: T22, kinases from mixed HeLa placenta lysates (Homo sapiens, UniProt Q9NSY1); conditions: kinase BIKE; 10 μM free compound; HeLa Placenta lysate mix
T22 construct: capturing and identification of kinases from mixed HeLa placenta lysates; endogenous in cells; host or cells: mixed lysate of HeLa cells and placenta tissue
Procedure: as §1

[23] = biological target: T23, kinases from mixed HeLa placenta lysates (Homo sapiens, UniProt Q9NWZ3); conditions: kinase IRAK4; 10 μM free compound; HeLa Placenta lysate mix
T23 construct: capturing and identification of kinases from mixed HeLa placenta lysates; endogenous in cells; host or cells: mixed lysate of HeLa cells and placenta tissue
Procedure: as §1

[24] = biological target: T24, kinases from mixed HeLa placenta lysates (Homo sapiens, UniProt Q9Y6R4); conditions: kinase MAP3K4; 10 μM free compound; HeLa Placenta lysate mix
T24 construct: capturing and identification of kinases from mixed HeLa placenta lysates; endogenous in cells; host or cells: mixed lysate of HeLa cells and placenta tissue
Procedure: as §1

`CS(=O)(=O)Nc1ccccc1Nc1nc(Nc2cccc(OCCN)c2)ncc1F` [CZC25342, N-(2-(2-(3-(2-aminoethoxy)phenylamino)-5-fluoropyrimidin-4-ylamino)phenyl)methanesulfonamide] was tested, and the “Competition % MPSK1” value [1] was 92.1%, the “Competition % PAK4” value [2] was 94.8% and the “Competition % FES” value [3] was 96.9%. The “Competition % MET” value [4] was 94.2%, the “Competition % JAK1” value [5] was 96.7% and the “Competition % MARK3” value [6] was 96.2%. The “Competition % Wee1” value [7] was 97.5%, the “Competition % FLT4” value [8] was 88.2% and the “Competition % GSK3B” value [9] was 92.5%. The “Competition % NEK3” value [10] was 94.8%, the “Competition % AMPKa2” value [11] was 97.1% and the “Competition % DNAPK” value [12] was 89.2%. The “Competition % MER” value [13] was 96.5%, the “Competition % TNK1” value [14] was 94.1% and the “Competition % CaMK2d” value [15] was 40.6%. The “Competition % PYK2” value [16] was 96.3%, the “Competition % RSK3” value [17] was 95.5% and the “Competition % LRRK2” value [18] was 87.8%. For the same molecule, the “Competition % MLK4” value [19] was 85.8%, the “Competition % ULK3” value [20] was 94.8% and the “Competition % CaMKK2” value [21] was 96.3%. For the same molecule, the “Competition % BIKE” value [22] was 94.8%, the “Competition % IRAK4” value [23] was 95.6% and the “Competition % MAP3K4” value [24] was 92.2%.
